Test results as given in PubChem BioAssay (NCI).
“And” between values parts separate entries of the source, which are not always exact repeats. Identical values can stand only once.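 The compound was tested at five concentrations on cells cultured in 96-well plates, with a 48-hour exposure period. GI50 is the concentration that inhibits growth by half. TGI: concentration producing complete growth inhibition.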

How the values were obtained:
Assay in all cases: NCI tumour cell line growth inhibition, 48 h
NCI/ADR-RES ovarian = system: NCI/ADR-RES ovarian
MCF7 breast = system: MCF7 breast
NCI-H522 lung = system: NCI-H522 lung
NCI-H23 lung = system: NCI-H23 lung
MALME-3M melanoma = system: MALME-3M melanoma
U251 CNS = system: U251 CNS
SNB-19 CNS = system: SNB-19 CNS
OVCAR-3 ovarian = system: OVCAR-3 ovarian

Compound | GI50 (NCI/ADR-RES ovarian) | TGI (NCI/ADR-RES ovarian) | GI50 (MCF7 breast) | TGI (MCF7 breast) | GI50 (NCI-H522 lung) | TGI (NCI-H522 lung) | GI50 (NCI-H23 lung) | TGI (NCI-H23 lung) | GI50 (MALME-3M melanoma) | TGI (MALME-3M melanoma) | GI50 (U251 CNS) | TGI (U251 CNS) | GI50 (SNB-19 CNS) | TGI (SNB-19 CNS) | GI50 (OVCAR-3 ovarian) | TGI (OVCAR-3 ovarian)
O=c1ccn(C2CC(O)C(CO)O2)c(=O)[nH]1 (stereo unspecified) | > 5000 µM | > 5000 µM | 3000 µM | > 5000 µM | > 5000 µM | > 5000 µM | > 5000 µM | > 5000 µM | > 5000 µM | > 5000 µM | > 5000 µM | > 5000 µM | > 5000 µM | > 5000 µM | > 5000 µM | > 5000 µM
O=C(Cn1c(=O)c(-c2ccccc2)nc2ccccc21)Nc1ccc(F)cc1 | > 100 µM | > 100 µM | 98.7 µM | > 100 µM | 65.1 µM | > 100 µM | > 100 µM | > 100 µM | 43 µM | > 100 µM | 48 µM | > 100 µM | 41.8 µM | > 100 µM | > 100 µM | > 100 µM
COc1ccc2c(=O)cc(-c3ccncc3)oc2c1OC |  | > 100 µM |  | > 100 µM |  | > 100 µM |  | > 100 µM |  | 96.9 µM |  | > 100 µM |  | > 100 µM |  | 64.8 µM
COC(=O)[C@@]12OC[C@]34[C@H]([C@@H](O)[C@@H]1O)[C@@]1(C)[C@H](O)C(=O)C=C(C)[C@@H]1C[C@H]3OC(=O)C(OC(C)=O)[C@@H]24 (stereo partly specified) | 0.904 µM | 8.53 µM | 0.0214 µM | 0.0701 µM | < 0.0111 µM | 0.041 µM | 0.0187 µM | 0.0567 µM | 0.0151 µM | 0.0466 µM | 0.0207 µM | 0.0443 µM | 0.0232 µM | 0.299 µM | 0.0248 µM | 0.0714 µM
Cc1cc(Cl)ccc1Nc1nc(C(F)(F)F)ccc1C(=O)N/N=C/c1ccc(Cl)cc1 | 2.16 µM | 6.38 µM | 1.55 µM | 4.7 µM | 2.23 µM | 7.96 µM | 1.85 µM | 6.48 µM | 2.02 µM | 5.51 µM | 2.07 µM |  | 2.6 µM | 12.4 µM | 1.32 µM | 5.28 µM
O=C1c2cccc(NCCN=Cc3cc([N+](=O)[O-])ccc3O)c2C(=O)c2c(NCCN=Cc3cc([N+](=O)[O-])ccc3O)cccc21 | > 100 µM | > 100 µM |  |  | 4.07 µM | > 100 µM | 5.8 µM | > 100 µM | 16.7 µM | 83.2 µM | 2.65 µM | 19.7 µM | 6.95 µM | > 100 µM | 4.79 µM | 72 µM
COc1cc2ccccc2oc1=O |  | > 100 µM |  | > 100 µM |  | > 100 µM |  | > 100 µM |  | > 100 µM |  | > 100 µM |  | > 100 µM |  | > 100 µM
CC1OC(n2c3ccccc3c3c4c(c5c6ccccc6[nH]c5c32)C(=O)N(CCN[C@@H]2CCC[C@H]2N)C4=O)CC(O)C1O (stereo partly specified) | > 50 µM | > 50 µM | 0.768 µM | 2.05 µM | 0.962 µM | 5.26 µM | 1.7 µM | 7.6 µM | 2.06 µM | 9.07 µM | 1.05 µM | 5.74 µM | 1.39 µM | 6.58 µM | 1.71 µM | 6.82 µM
O=C(Nc1ccncc1)C(=O)c1cn(Cc2ccc(Cl)cc2)c2ccccc12 | 0.0317 µM | > 100 µM | 0.0363 µM | > 100 µM |  |  | 0.0548 µM | > 100 µM | 0.0414 µM | > 100 µM | 0.0472 µM | > 100 µM | 0.0622 µM | > 100 µM | 0.0267 µM | 0.0652 µM
CCCc1cc(=O)[nH]c(-n2nc(C)cc2C)n1 | 2.73 µM | > 100 µM | 4.31 µM | > 100 µM | 4.98 µM | 30.7 µM |  |  |  |  | 1.71 µM | > 100 µM | 4.5 µM | > 100 µM | 7.43 µM | > 100 µM
C#CC1(O)C(COP(=O)(O)OC(COCCCCCCCCCCCCCCCCCC)COP(=O)(O)OCC2OC(n3cc(F)c(=O)[nH]c3=O)CC2O)OC(n2ccc(N)nc2=O)C1O (stereo unspecified) |  | 8.28 µM and 30.5 µM |  |  | < 0.0377 µM and 0.0758 µM | 0.223 µM and 1.52 µM | 0.613 µM and 2.28 µM | 20.7 µM and 33.1 µM | 0.742 µM and 0.202 µM | 21.8 µM and 3.51 µM | < 0.0428 µM and 0.177 µM | 17.2 µM and 20.6 µM |  | 16.7 µM and 15.1 µM |  | > 29.1 µM and 23.4 µM
Cc1cc(NCCN(C(C)C)C(C)C)nc(/N=C(\N)Nc2ccc(Cl)c(C(F)(F)F)c2)n1 | 1.67 µM | 3.45 µM | 0.269 µM | 0.851 µM | 0.206 µM | 0.47 µM | 1.49 µM | 3.08 µM | 0.183 µM | 0.403 µM | 0.194 µM | 0.4 µM | 1.48 µM | 2.83 µM | 1.32 µM | 2.77 µM
O=[N+]([O-])c1ccc2c(c1)Cc1cc(N=Cc3ccc4c(c3)OCO4)ccc1-2 |  | > 100 µM |  | > 100 µM |  | > 100 µM |  | > 100 µM |  | > 100 µM |  | > 100 µM |  | > 100 µM |  | > 100 µM
COC1/C=C/C(C)C(C(C)C(OC)C(C)CCC(=O)C(C)C(C/C=C/N(C)C=O)OC)OC(=O)/C=C/C=C(\C)CC(OC)CC2=CC(=O)O[C@H](C2)C(C)C(OC)CC(OC)/C=C/C(C)C(OC)C1 (stereo partly specified) | 0.102 µM |  |  |  |  |  | 0.0919 µM | 0.499 µM and 0.171 µM | 0.0213 µM | 0.0582 µM and 0.0315 µM | 0.0122 µM | 0.0289 µM | 0.052 µM | 0.212 µM and 0.0904 µM | 0.0127 µM | 0.0307 µM
COc1ccc(-c2nc(/C=N/Nc3cc(C)nc4ccc(Cl)cc34)c(C)o2)cc1 | 1.97 µM | 3.95 µM |  |  |  |  | 1.99 µM | 4.09 µM | 1.84 µM | 3.43 µM | 1.78 µM | 3.28 µM | 1.81 µM | 3.46 µM | 1.81 µM | 3.27 µM
COc1cccc(-c2nn(-c3ccccc3)cc2-c2ccnc(NCCCNC(=O)Nc3ccc(Cl)c(Cl)c3)c2)c1 | 2.19 µM | 5.39 µM | 1.94 µM | 3.71 µM |  |  | 3.16 µM | 13.9 µM | 1.86 µM | 3.9 µM | 3.1 µM | 11.7 µM | 4.01 µM | 25.6 µM | 4.57 µM | 17.3 µM
CCn1cc(C(=O)N/N=C/c2ccccc2)c(=O)c2cc(F)c(N3CCNC(C)C3)c(F)c21 (stereo unspecified) | 1.76 µM | 3.46 µM |  |  |  |  |  |  |  |  |  |  |  |  | 1.82 µM | 3.3 µM
